Laboratory results reported in ChEMBL document CHEMBL1147277, “Pentagalloylglucose, a xanthine oxidase inhibitor from a Paraguayan crude drug, "Molle-i" (Schinus terebinthifolius)” (J Nat Prod, 1989).

What was measured:
[1] = target: T1, Xanthine dehydrogenase/oxidase (Bos taurus, UniProt P80457); experiment: Inhibition of cow milk xanthine oxidase
[2] = target: T1, Xanthine dehydrogenase/oxidase; experiment: Inhibition of cow milk xanthine oxidase by Lineweaver-Burke plot analysis; conditions: read-out: Activity

T1 sequence (P80457 whole entry): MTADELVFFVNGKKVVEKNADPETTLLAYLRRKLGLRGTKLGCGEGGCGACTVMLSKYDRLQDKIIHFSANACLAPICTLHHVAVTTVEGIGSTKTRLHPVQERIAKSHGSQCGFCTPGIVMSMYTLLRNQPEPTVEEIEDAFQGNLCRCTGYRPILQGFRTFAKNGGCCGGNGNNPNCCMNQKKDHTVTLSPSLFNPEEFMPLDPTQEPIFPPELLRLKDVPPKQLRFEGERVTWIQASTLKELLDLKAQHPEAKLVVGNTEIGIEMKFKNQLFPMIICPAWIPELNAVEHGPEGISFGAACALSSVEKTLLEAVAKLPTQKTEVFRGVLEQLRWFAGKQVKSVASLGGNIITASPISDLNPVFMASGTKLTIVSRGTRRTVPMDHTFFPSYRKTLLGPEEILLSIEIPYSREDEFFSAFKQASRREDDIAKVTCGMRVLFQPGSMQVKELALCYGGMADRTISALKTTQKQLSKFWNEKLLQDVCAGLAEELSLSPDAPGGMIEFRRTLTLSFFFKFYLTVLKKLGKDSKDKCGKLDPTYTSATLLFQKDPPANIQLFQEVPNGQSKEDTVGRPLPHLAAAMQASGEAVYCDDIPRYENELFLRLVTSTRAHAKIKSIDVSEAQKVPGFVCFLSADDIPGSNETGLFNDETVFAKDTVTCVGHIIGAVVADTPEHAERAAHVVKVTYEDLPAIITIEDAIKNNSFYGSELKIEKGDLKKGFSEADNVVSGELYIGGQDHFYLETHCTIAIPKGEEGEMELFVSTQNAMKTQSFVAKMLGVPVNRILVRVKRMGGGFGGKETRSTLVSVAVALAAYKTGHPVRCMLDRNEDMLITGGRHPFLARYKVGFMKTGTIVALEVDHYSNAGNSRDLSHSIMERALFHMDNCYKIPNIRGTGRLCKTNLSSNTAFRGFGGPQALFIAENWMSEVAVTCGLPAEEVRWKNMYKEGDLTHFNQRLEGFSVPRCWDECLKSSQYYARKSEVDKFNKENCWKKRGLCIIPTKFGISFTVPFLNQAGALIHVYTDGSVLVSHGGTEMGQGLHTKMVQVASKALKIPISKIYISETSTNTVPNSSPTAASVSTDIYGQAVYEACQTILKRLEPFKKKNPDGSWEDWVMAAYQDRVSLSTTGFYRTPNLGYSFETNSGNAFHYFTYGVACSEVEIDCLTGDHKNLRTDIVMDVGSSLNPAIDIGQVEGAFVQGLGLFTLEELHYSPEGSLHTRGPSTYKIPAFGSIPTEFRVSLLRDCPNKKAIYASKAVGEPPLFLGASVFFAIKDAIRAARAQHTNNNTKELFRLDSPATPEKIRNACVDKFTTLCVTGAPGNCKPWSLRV

Compound `O=C(OC[C@H]1O[C@@H](OC(=O)c2cc(O)c(O)c(O)c2)[C@H](OC(=O)c2cc(O)c(O)c(O)c2)[C@@H](OC(=O)c2cc(O)c(O)c(O)c2)[C@@H]1OC(=O)c1cc(O)c(O)c(O)c1)c1cc(O)c(O)c(O)c1` [PENTAGALLOYL GLUCOSE] has an IC50 [1] of 3200 nM and a Ki [2] of 2120 nM.
